In the supplement of paper PMC10307832:

Legend:
Experiment in all cases: relative viability (nuclei count vs DMSO), 5 days (fraction); higher = more cells survive
[1] = compound: OCc1c[nH]c2ccccc12 [Indole-3-carbinol] + CS(=O)(=O)N1CCN(Cc2cc3nc(-c4cccc5[nH]ncc45)nc(N4CCOCC4)c3s2)CC1 [Pictilisib] (partner 1 µM)
Procedure, shortened: (§1)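 Lung cancer cell lines in 1536-well plates got either a single drug or a fixed anchor-drug dose together with five library-drug doses (not always all listed) in √10 steps, by pin tool, on the day after seeding. Nuclei were counted after 5 days, and relative viability is the treated-to-vehicle ratio of nuclei counts. Values are medians of duplicate plates.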

[2] = compound: OCc1c[nH]c2ccccc12 [Indole-3-carbinol] + Cc1cc(Nc2cc(N3CCN(C)CC3)nc(Sc3ccc(NC(=O)C4CC4)cc3)n2)n[nH]1 [Tozasertib] (partner 0.1 µM)
Procedure, shortened: as §1

[3] = compound: OCc1c[nH]c2ccccc12 [Indole-3-carbinol] + Cc1nc(NC(=O)N2CCC[C@H]2C(N)=O)sc1-c1ccnc(C(C)(C)C(F)(F)F)c1 [Alpelisib] (partner 2 µM)
Procedure, shortened: as §1

[4] = compound: OCc1c[nH]c2ccccc12 [Indole-3-carbinol] + N=C(N)NC(=N)NCCc1ccccc1 [Phenformin] (partner 250 µM)
Procedure, shortened: as §1

[5] = compound: OCc1c[nH]c2ccccc12 [Indole-3-carbinol] + O=C(CCCCCCC(=O)Nc1ccccc1)NO [Vorinostat] (partner 1 µM)
Procedure, shortened: as §1

Cell Line	relative viability ([1]; first compound 0.253 µM)	relative viability ([1]; first compound 0.8 µM)	relative viability ([1]; first compound 2.53 µM)	relative viability ([1]; first compound 8 µM)	relative viability ([2]; first compound 0.253 µM)	relative viability ([2]; first compound 0.8 µM)	relative viability ([2]; first compound 2.53 µM)	relative viability ([2]; first compound 8 µM)	relative viability ([3]; first compound 0.253 µM)	relative viability ([3]; first compound 0.8 µM)	relative viability ([3]; first compound 2.53 µM)	relative viability ([3]; first compound 8 µM)	relative viability ([4]; first compound 0.253 µM)	relative viability ([4]; first compound 0.8 µM)	relative viability ([4]; first compound 2.53 µM)	relative viability ([4]; first compound 8 µM)	relative viability ([5]; first compound 0.253 µM)	relative viability ([5]; first compound 0.8 µM)	relative viability ([5]; first compound 2.53 µM)	relative viability ([5]; first compound 8 µM)
NCI-H1755	0.401	0.318	0.442	0.424	0.642	0.592	0.647	0.535	0.97	0.935	0.907	0.886	0.645	0.594	0.636	0.625	0.83	0.694	0.738	0.78
NCI-H1793	0.461	0.204	0.376	0.271	0.332	0.389	0.339	0.395	0.779	0.768	0.649	0.754	0.438	0.409	0.499	0.339	0.915	0.798	0.898	0.632
NCI-H1915	0.901	0.858	0.949	0.926	0.409	0.459	0.449	0.464	1.05	1.05	1.07	1.03	0.383	0.365	0.368	0.354	0.511	0.512	0.495	0.518
NCI-H1944	0.329	0.3	0.348	0.301	0.245	0.241	0.264	0.246	0.871	0.805	0.725	0.822	0.202	0.195	0.202	0.199	0.529	0.472	0.595	0.523
NCI-H1975	0.293	0.305	0.326	0.288	0.651	1.03	0.797	0.88	0.635	0.734	0.736	0.583	0.391	0.413	0.419	0.417	0.663	0.754	0.73	0.712
NCI-H1993	0.795	0.802	0.808	0.806	0.614	0.629	0.579	0.562	0.723	0.663	0.631	0.674	0.516	0.523	0.516	0.549	0.697	1.05	0.958	0.783
NCI-H2009	0.842	0.743	0.763	0.837	0.691	0.862	0.737	0.739	1.17	1.23	1.16	1.11	0.512	0.515	0.506	0.465	0.752	0.733	0.746	0.699
NCI-H2023	0.218	0.237	0.23	0.236	0.256	0.355	0.366	0.362	0.587	0.587	0.592	0.626	0.454	0.426	0.434	0.399	0.727	0.526	0.588	0.572
NCI-H2085	0.41	0.389	0.444	0.503	0.848	0.914	0.887	0.79	0.905	1.06	1.05	0.854	0.684	0.85	0.787	0.624	0.867	0.751	0.753	0.687
NCI-H2087	0.726	1.07	0.91	0.833	0.214	0.294	0.283	0.296	0.807	1.15	1.01	0.942	0.45	0.525	0.466	0.386	0.837	1.09	0.86	0.655
NCI-H2126	0.469	0.483	0.518	0.498	0.849	0.876	0.793	0.866	0.751	0.808	0.714	0.764	0.51	0.518	0.525	0.512	0.734	0.834	0.718	0.752
NCI-H2170	0.329	0.308	0.322	0.311	0.703	0.712	0.79	0.717	0.794	0.815	0.738	0.81	0.451	0.385	0.432	0.418	0.906	0.832	0.851	0.778
NCI-H2228	0.514	0.374	0.349	0.506	0.208	0.303	0.254	0.265	0.697	0.902	0.779	0.629	0.327	0.354	0.365	0.383	0.728	0.682	0.788	0.571
NCI-H2347	0.673	0.532	0.719	0.599	0.614	0.54	0.571	0.538	1.06	1.08	1.14	0.868	0.405	0.34	0.496	0.435	0.521	0.638	0.526	0.506
NCI-H2405	0.49	0.472	0.489	0.483	0.751	0.806	0.758	0.776	0.901	0.661	0.988	0.749	0.426	0.376	0.391	0.44	1	1.03	0.971	0.978
NCI-H3122	0.553	0.673	0.592	0.588	0.398	0.383	0.483	0.372	0.878	0.879	0.855	0.74	0.391	0.364	0.413	0.381	1.05	1.05	1.06	0.885
PC-3 [JPC-3]	0.817	0.801	0.649	0.73	0.873	0.981	0.879	0.866	1.08	1.13	1.03	0.967	0.477	0.483	0.483	0.473	0.827	0.926	0.801	0.875
PC-14	0.738	0.875	0.735	0.652	0.578	0.585	0.633	0.554	0.995	0.955	0.888	0.93	0.586	0.536	0.582	0.5	0.665	0.594	0.724	0.649
RERF-LC-KJ	0.512	0.541	0.562	0.581	0.441	0.518	0.546	0.509	0.841	0.783	0.814	0.83	0.392	0.415	0.428	0.401	0.687	0.622	0.656	0.726
SK-LU-1	0.568	0.405	0.522	0.551	0.303	0.356	0.367	0.302	1.01	1.03	1.07	0.99	0.582	0.57	0.58	0.534	0.795	0.865	0.757	0.839
SK-MES-1	0.416	0.356	0.321	0.4	0.904	1.04	0.932	0.907	0.908	0.979	0.833	0.764	0.689	0.733	0.693	0.61	1.16	1.08	1.08	0.986
SW 1573	0.361	0.577	0.544	0.425	0.187	0.233	0.135	0.176	0.724	0.833	0.822	0.761	0.34	0.449	0.404	0.363	0.764	0.731	1.05	0.76
UMC-11	0.792	0.836	0.764	0.789	0.196	0.202	0.187	0.204	0.933	1.02	0.981	0.955	0.33	0.319	0.339	0.324	0.332	0.377	0.432	0.398
